Measurements taken from article PMC4247201 (Cancer research, 2014).
Where two headings read alike, the source gives them in different places.

Experiments:
SJSA-1 = assay: WST cell growth inhibition, SJSA-1; format: cell-based
LANCaP = assay: WST cell growth inhibition, LANCaP; format: cell-based
HCT-116 = assay: WST cell growth inhibition, HCT-116; format: cell-based
[1] = system: SJSA-1 osteosarcoma cell line; assay: qRT-PCR of p53 target gene mRNA in SJSA-1 cells; format: cell-based; details: for effect on mRNA levels of Bax and Noxa: qRT-PCR
HCT-116 (p53−/−) = assay: WST cell growth inhibition, HCT-116; format: cell-based
RS4;11 = assay: WST cell growth inhibition, RS4; format: cell-based
[2] = system: HCT-116 colon cancer cell line; assay: qRT-PCR of p53 target gene mRNA in HCT-116 cells; format: cell-based
β-catenin = assay: binding to β-catenin; details: at 10 μM
[3] = system: LNCaP prostate cancer cell line; assay: flow cytometry cell cycle and apoptosis, LNCaP; format: cell-based
[4] = oral pharmacokinetics in mice; format: in vivo
[5] = system: SJSA-1, HCT-116, RS4;11 and LNCaP cell lines; assay: Western blotting of p53 activation in four cell lines; format: cell-based
PC-3 = assay: WST cell growth inhibition, PC-3; format: cell-based; details: Homo sapiens, PC-3, read-out: Cell growth Inhibition (IC50, μM)
[6] = system: wild-type p53 cancer cell lines of diverse tumor types; assay: cell growth inhibition, wild-type p53 lines; format: cell-based
Mcl-1 = assay: binding to Mcl-1; details: at 10 μM
SW620 = assay: WST cell growth inhibition, SW620; format: cell-based; details: Homo sapiens, SW-620, read-out: Cell growth Inhibition (IC50, μM)
SJSA-1 xenograft tumors = assay: SJSA-1 osteosarcoma xenograft efficacy; format: in vivo, SCID mice; details: SJSA-1 model
MDMx = assay: Biolayer Interferometry binding to MDMx; details: at 10 μM
SAOS-2 = assay: WST cell growth inhibition, SAOS-2; format: cell-based; details: Homo sapiens, SAOS-2, read-out: Cell growth Inhibition (IC50, μM)
[7] = tolerability in efficacy experiments; details: mice, all dose-scheduled tests of the efficacy experiments
[8] = system: SJSA-1 cells with p53 knock-down; format: cell-based
[9] = system: HCT-116 xenograft tumor tissue; assay: pharmacodynamics, qRT-PCR in HCT-116 tumor tissue; format: in vivo, mice; details: single oral dose, even at 200 mg/kg
[10] = mouse, in vivo
[11] = system: HCT-116 colon cancer cell line; assay: flow cytometry cell cycle and apoptosis, HCT-116; format: cell-based
RS4;11 xenograft tumors = assay: RS4; format: in vivo, SCID mice; details: RS4;11 model
[12] = stability in cell culture media and two other solutions; format: physicochemical; details: cell culture media and two other solutions in which some spiro-oxindoles isomerize
[13] = system: cancer cell lines with a mutated or deleted p53; assay: cell growth inhibition, mutated or deleted p53 lines; format: cell-based; details: read-out: IC50 of cell growth inhibition
Bcl-2 = assay: binding to Bcl-2; details: at 10 μM
[14] = oral pharmacokinetics in dogs; format: in vivo
MDM2 18–118 protein = MDM2 18–118 protein (Homo sapiens, UniProt Q00987); assay: FP binding assay, truncated MDM2 18–118; details: MDM2 18–118 vs 1–118
Bcl-xL = assay: binding to Bcl-xL; details: at 10 μM
MDM2 25–118 protein = MDM2 25–118 protein (Homo sapiens, UniProt Q00987); assay: FP binding assay, truncated MDM2 25–118; details: MDM2 25–118 vs 1–118
human MDM2 protein = human MDM2 protein (Homo sapiens, UniProt Q00987); assay: fluorescence-polarization competitive binding assay, MDM2 1–118
HCT-116 xenograft tumors = assay: HCT-116 colon cancer xenograft efficacy; format: in vivo, SCID mice; details: HCT-116 model
LNCaP xenograft tumors = assay: LNCaP prostate cancer xenograft efficacy; format: in vivo, SCID mice; details: LNCaP model
[15] = oral pharmacokinetics in rats; format: in vivo
SJSA-1 tumor tissue = assay: pharmacodynamics, qRT-PCR in SJSA-1 tumor tissue; format: in vivo, mice; details: single oral dose
[16] = read-out: Cell growth Inhibition (IC50), SJSA-1, p53 Wild Type
[17] = read-out: Cell growth Inhibition (IC50), LANCaP, p53 Wild Type
[18] = read-out: Cell growth Inhibition (IC50), HCT-116, p53 Wild Type
[19] = read-out: Cell growth Inhibition (IC50), RS4;11, p53 Wild Type
[20] = Homo sapiens, HCT-116, read-out: Cell growth Inhibition (IC50, μM)

CC(C)(C)C[C@H]1N[C@@H](C(=O)NCC[C@H](O)CO)[C@H](c2cccc(Cl)c2)[C@@]12C(=O)Nc1cc(Cl)c(F)cc12.Cl [MI-219]
IC50 (SJSA-1; [16]): 1.4 ± 0.2 µM | IC50 (LANCaP; [17]): 1.1 ± 0.1 µM | IC50 (HCT-116; [18]): 0.95 ± 0.05 µM | effect on mRNA levels of Bax and Noxa ([1]; SJSA-1 cells): no significant effect | IC50 (HCT-116 (p53−/−); read-out: Cell growth Inhibition (IC50), HCT-116 (p53−/−), p53 Deletion): > 10 µM | IC50 (RS4;11; [19]): 1 ± 0.2 µM

CC(C)(C)C[C@@H]1N[C@@H](C(=O)N[C@H]2CC[C@H](O)CC2)[C@H](c2cccc(Cl)c2F)[C@]12C(=O)Nc1cc(Cl)ccc12 [SAR405838]
effect on p53 mRNA ([2]; HCT-116 cells): no increase | times more potent than MI-219 and nutlin-3a in induction of p21 and MDM2 transcription ([2]; HCT-116 cells): 5–10 times | increase of PUMA mRNA ([2]; HCT-116 cells, at 1 and 3 μM): ~ 3 fold | EC50 ([2]; Homo sapiens, HCT-116, read-out: EC50 of increase of MDM2 and p21 mRNA): 700 nM | IC50 (SJSA-1; Homo sapiens, SJSA-1, read-out: Cell growth Inhibition (IC50, μM)): 0.092 ± 0.019 µM | IC50 (LANCaP; read-out: Cell growth Inhibition (IC50, μM)): 0.27 ± 0.03 µM | binding to β-catenin (β-catenin): no appreciable binding | concentration that effectively inhibits cell cycle progression ([3]; 24 h treatment): ≥ 0.3 µM | apoptosis induction ([3]; even at 10 μM): modest or minimal effect | oral pharmacokinetics (PK) [4]: good | times more potent than MI-219 in activation of p53 [5]: > 10 times | IC50 (PC-3): > 10 µM | times more potent than MI-219 and nutlin-3a in inhibition of cell growth [6]: 5–10 times | IC50 (HCT-116; [20]): 0.2 ± 0.04 µM | binding to Mcl-1 (Mcl-1): no appreciable binding | IC50 (SW620): > 10 µM | antitumor activity (SJSA-1 xenograft tumors; 10 mg/kg daily oral for 2 weeks): no significant activity | antitumor activity (SJSA-1 xenograft tumors; 30 mg/kg daily oral for 2 weeks): partial tumor regression | antitumor activity (SJSA-1 xenograft tumors; 100 mg/kg daily oral for 2 weeks): rapid, complete and persistent tumor regression | shrinkage of average tumor volume (SJSA-1 xenograft tumors; 100 mg/kg daily oral, after four doses): > 90% | tumor free mice (SJSA-1 xenograft tumors; 100 mg/kg daily, day 55, 31 days after the last dose, of 8 mice): 8 mice | tumor free animals (SJSA-1 xenograft tumors; 100 mg/kg daily, day 73, 2 months after the last dose, 5 out of 8): 63% | antitumor activity (SJSA-1 xenograft tumors; single 100 mg/kg oral dose): effectively inhibits tumor growth | mice with complete tumor regression (SJSA-1 xenograft tumors; single oral dose of 200 mg/kg): 100% | binding to MDMx (MDMx): no appreciable binding | IC50 (SAOS-2): > 10 µM | weight loss [7]: less than 10% | EC50 ([1]; Homo sapiens, SJSA-1, read-out: EC50 of up-regulation of MDM2, p21 and PUMA mRNA): 300 to 600 nM | effect on p53 mRNA ([1]; SJSA-1 cells): no effect | times more potent than MI-219 and nutlin-3a in induction of p21 and MDM2 transcription ([1]; SJSA-1 cells): 5–10 times | induction of PUMA mRNA ([1]; SJSA-1 cells, at 1 μM): 19 fold | effect on mRNA levels of Bax and Noxa ([1]; SJSA-1 cells): no significant effect | reduction of potency in cell growth inhibition by p53 knock-down [8]: > 20 times | IC50 (HCT-116 (p53−/−); [20]): > 20 µM | maximum induction of PUMA mRNA over the control [9]: 3 fold | signs of toxicity [10]: no signs of toxicity | concentration that effectively inhibits cell cycle progression ([11]; HCT-116, 24 h treatment): ≥ 0.3 µM | apoptosis induction ([11]; HCT-116, even at 10 μM): modest or minimal effect | antitumor activity (RS4;11 xenograft tumors; 50 mg/kg daily dosing): partial tumor regression | antitumor activity (RS4;11 xenograft tumors; 100 mg/kg daily dosing): complete tumor regression | antitumor activity (RS4;11 xenograft tumors; 200 mg/kg daily dosing): complete tumor regression | tumor free mice (RS4;11 xenograft tumors; 200 mg/kg, day 71, 25 days after the last dose, of 8 mice): 8 mice | stability in solution [12]: stable | IC50 [13]: ≥ 10000 nM | binding to Bcl-2 (Bcl-2): no appreciable binding | oral pharmacokinetics (PK) [14]: good | IC50 (RS4;11; Homo sapiens, RS4-11, read-out: Cell growth Inhibition (IC50, μM)): 0.089 ± 0.027 µM | times weaker than with the MDM2 1–118 protein (MDM2 18–118 protein): 10 times | binding to Bcl-xL (Bcl-xL): no appreciable binding | times weaker than with the MDM2 1–118 protein (MDM2 25–118 protein): 25 times | times more potent than MI-219 in MDM2 binding (human MDM2 protein; comparator MI-219): > 10 times | times more potent than nutlin-3a in MDM2 binding (human MDM2 protein; comparator nutlin-3a): > 50 times | times more potent than the p53 peptide in MDM2 binding (human MDM2 protein; comparator p53 peptide): > 1,000 times | tumor growth inhibition over the vehicle control (HCT-116 xenograft tumors; 100 mg/kg daily dosing, end of the treatment): > 80% | antitumor activity (HCT-116 xenograft tumors; 200 mg/kg daily dosing): completely inhibits tumor growth | tumor growth inhibition over the vehicle control (LNCaP xenograft tumors; 50 mg/kg daily for 4 weeks): 70% | antitumor activity (LNCaP xenograft tumors; 100 mg/kg daily for 4 weeks): completely inhibits tumor growth | tumor regression (LNCaP xenograft tumors; 200 mg/kg daily for 4 weeks): 80% | oral pharmacokinetics (PK) [15]: good | increase of PUMA mRNA (SJSA-1 tumor tissue): > 40 fold

COc1ccc(C2=N[C@@H](c3ccc(Cl)cc3)[C@@H](c3ccc(Cl)cc3)N2C(=O)N2CCNC(=O)C2)c(OC(C)C)c1 [Nutlin-3a]
IC50 (SJSA-1; [16]): 1.3 ± 0.2 µM | IC50 (LANCaP; [17]): 1.2 ± 0.4 µM | IC50 (HCT-116; [18]): 0.86 ± 0.11 µM | effect on mRNA levels of Bax and Noxa ([1]; SJSA-1 cells): no significant effect | IC50 (RS4;11; [19]): 0.57 ± 0.13 µM
